Data on 89 sequences can be found in the supplement of paper PMC4314810.

± gives the standard deviation of the averaged measurements.

This data set concerns MCF7. The data set is described as follows: HRG-induced Akt activation (dPAkt = log2 pAkt/Akt HRG-stimulated minus log2 pAkt/Akt basal) (log2 ratio difference); higher = stronger HRG-induced Akt(T308) phosphorylation. The conditions noted are these: miRNA mimic concentration 10 nM; time after transfection 72 h; heregulin 10 ng/ml; stimulation time 1 h. The essentials: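 MCF7 cells were plated […] in 96-well plates and transfected in two biological replicates with a library of 879 miRNA mimics (10 nM final) using Lipofectamine RNAiMax; 72 h later they were stimulated for 1 h with 10 ng/ml heregulin-beta1 or left unstimulated. After fixation in 4% PFA, phospho-Akt(T308) and total Akt were measured by In-Cell Western on an Odyssey, with signals corrected for column-wise fixation decay. Heregulin-induced Akt activation is the stimulated minus unstimulated value of the log ratio of phospho-Akt to total Akt, averaged over replicates. That log ratio is log2(pAkt/Akt).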
With UCUGGCUCCGUGUCUUCACUCCC, the “HRG-induced Akt activation (log2)” value came to 0.873 ± 0.15.
The value for UCUGGGCAACAAAGUGAGACCU was 0.753 ± 0.69; that for UCUUCUCUGUUUUGGCCAUGUG was 1.27 ± 0.041.
The value for UCUUGGAGUAGGUCAUUGGGUGG was 1.56 ± 0.046.
In the case of UCUUGUGUUCUCUAGAUCAGU, the “HRG-induced Akt activation (log2)” value came out at 1.53 ± 0.22.
Then UCUUUGGUUAUCUAGCUGUAUGA, with 1.96 ± 0.15; and UGAAACAUACACGGGAAACCUC, with 1.0374 ± 0.0008.
With UGAAGGUCUACUGUGUGCCAGG, the “HRG-induced Akt activation (log2)” value worked out at 1.11 ± 0.052.
The value for UGACAACUAUGGAUGAGCUCU was 1.53 ± 0.29; that for UGACCGAUUUCUCCUGGUGUUC was 2.09 ± 0.076.
The value for UGAGAACCACGUCUGCUCUGAG was 2.16 ± 0.27; that for UGAGAACUGAAUUCCAUAGGCU was 2.34 ± 0.1; that for UGAGAACUGAAUUCCAUGGGUU was 2.55 ± 0.058.
The value for UGAGACCUCUGGGUUCUGAGCU was 1.95 ± 0.023; that for UGAGAUGAAGCACUGUAGCUC was 1.18 ± 0.22.
With UGAGCCCCUGUGCCGCCCCCAG, the “HRG-induced Akt activation (log2)” value was determined as 2.137 ± 0.01.
Consider UGAGCCCUGUCCUCCCGCAG, for which the “HRG-induced Akt activation (log2)” value stood at 2.24 ± 0.29.
Then UGAGCGCCUCGACGACAGAGCCG, with 1.29 ± 0.043.
Then UGAGCUAAAUGUGUGCUGGGA, with 1.26 ± 0.69.
The value for UGAGCUGCUGUACCAAAAU was 2.107 ± 0.0035; that for UGAGGCAGUAGAUUGAAU was 1.49 ± 0.26; that for UGAGGGGCAGAGAGCGAGACUUU was 1.83 ± 0.26.
Turning to UGAGGUAGGAGGUUGUAUAGUU, the “HRG-induced Akt activation (log2)” value amounted to 1.11 ± 0.083.
The value for UGAGGUAGUAAGUUGUAUUGUU was 1.6 ± 0.43; that for UGAGGUAGUAGAUUGUAUAGUU was 1.22 ± 0.24.
Then UGAGGUAGUAGGUUGUAUAGUU, with 1.26 ± 0.07; and UGAGGUAGUAGGUUGUAUGGUU, with 1.07 ± 0.07.
The value for UGAGGUAGUAGGUUGUGUGGUU was 1.08 ± 0.14; that for UGAGGUAGUAGUUUGUACAGUU was 1.47 ± 0.12; that for UGAGGUAGUAGUUUGUGCUGUU was 1.12 ± 0.026.
For UGAGUACCGCCAUGUCUGUUGGG, the “HRG-induced Akt activation (log2)” value amounted to 1.98 ± 0.09.
Then UGAGUAUUACAUGGCCAAUCUC, with 1.74 ± 0.27; and UGAGUGCCGGUGCCUGCCCUG, with 1.43 ± 0.08; and UGAGUGUGUGUGUGUGAGUGUGU, with 2.295 ± 0.0047.
Then UGAGUUGGCCAUCUGAGUGAG, with 1.61 ± 0.27; and UGAUAUGUUUGAUAUAUUAGGU, with 1.52 ± 0.077; and UGAUAUGUUUGAUAUUGGGUU, with 1.75 ± 0.041.
The value for UGAUUGGUACGUCUGUGGGUAG was 2.35 ± 0.031; that for UGAUUGUAGCCUUUUGGAGUAGA was 1.96 ± 0.18.
With UGAUUGUCCAAACGCAAUUCU, the “HRG-induced Akt activation (log2)” value was 1.82 ± 0.3.
Then UGCAACGAACCUGAGCCACUGA, with 1.49 ± 0.14; and UGCAACUUACCUGAGUCAUUGA, with 1.61 ± 0.13; and UGCACCAUGGUUGUCUGAGCAUG, with 1.29 ± 0.33.
Then UGCAGGACCAAGAUGAGCCCU, with 1.41 ± 0.17.
The value for UGCCCUAAAUGCCCCUUCUGGC was 1.36 ± 0.27.
Consider UGCCCUUAAAGGUGAACCCAGU, for which the “HRG-induced Akt activation (log2)” value was determined as 1.22 ± 0.2.
Then UGCCUACUGAGCUGAAACACAG, with 1.549 ± 0.007; and UGCCUACUGAGCUGAUAUCAGU, with 1.62 ± 0.029.
For UGCCUGGGUCUCUGGCCUGCGCGU, the “HRG-induced Akt activation (log2)” value came out at 1.29 ± 0.18.
The value for UGCCUGUCUACACUUGCUGUGC was 1.34 ± 0.089; that for UGCGGGGCUAGGGCUAACAGCA was 2.49 ± 0.31.
The value for UGCUAUGCCAACAUAUUGCCAU was 1.72 ± 0.27; that for UGCUGGAUCAGUGGUUCGAGUC was 2.32 ± 0.36; that for UGCUUCCUUUCAGAGGGU was 1.61 ± 0.34.
Then UGGAAGACUAGUGAUUUUGUUGU, with 2.15 ± 0.38.
On to UGGAAUGUAAAGAAGUAUGUAU, for which the “HRG-induced Akt activation (log2)” value stood at 1.76 ± 0.27.
The value for UGGAAUGUAAGGAAGUGUGUGG was 2.05 ± 0.28; that for UGGACGGAGAACUGAUAAGGGU was 1.48 ± 0.21; that for UGGACUGCCCUGAUCUGGAGA was 1.55 ± 0.66.
The value for UGGAGAGAAAGGCAGUUCCUGA was 0.965 ± 0.16.
The value for UGGAGGAGAAGGAAGGUGAUG was 1.81 ± 0.038; that for UGGAGUCCAGGAAUCUGCAUUUU was 0.279 ± 0.71; that for UGGAGUGUGACAAUGGUGUUUG was 2.527 ± 0.012.
For the sequence UGGAUUUCUUUGUGAAUCACCA, the “HRG-induced Akt activation (log2)” value is 1.87 ± 0.11.
Then UGGAUUUUUGGAUCAGGGA, with 2.21 ± 0.15; and UGGCAGGGAGGCUGGGAGGGG, with 1.63 ± 0.15.
The value for UGGCAGUGUAUUGUUAGCUGGU was 2.12 ± 0.35; that for UGGCAGUGUCUUAGCUGGUUGU was 1.99 ± 0.091; that for UGGCCCUGACUGAAGACCAGCAGU was 1.11 ± 0.22.
Then UGGCUCAGUUCAGCAGGAACAG, with 0.611 ± 0.18; and UGGGAACGGGUUCCGGCAGACGCUG, with 1.22 ± 0.16; and UGGGCGUAUCUGUAUGCUA, with 1.83 ± 0.1.
With UGGGGAGCUGAGGCUCUGGGGGUG, the “HRG-induced Akt activation (log2)” value worked out at 1.74 ± 0.26.
Then UGGGUCUUUGCGGGCGAGAUGA, with 1.89 ± 0.21; and UGGGUGGUCUGGAGAUUUGUGC, with 1.58 ± 0.13; and UGGGUUCCUGGCAUGCUGAUUU, with 1.27 ± 0.13.
Regarding UGGGUUUACGUUGGGAGAACU, the “HRG-induced Akt activation (log2)” value came to 1.44 ± 0.096.
As to UGGUAGACUAUGGAACGUAGG, the “HRG-induced Akt activation (log2)” value came out at 0.953 ± 0.95.
The value for UGGUCUAGGAUUGUUGGAGGAG was 1.61 ± 0.078.
The value for UGGUGCGGAGAGGGCCCACAGUG was 0.984 ± 0.11; that for UGGUGGGCACAGAAUCUGGACU was 1.74 ± 0.12.
For the sequence UGGUGGGCCGCAGAACAUGUGC, the “HRG-induced Akt activation (log2)” value turned out to be 1.74 ± 0.035.
In the case of UGGUGGUUUACAAAGUAAUUCA, the “HRG-induced Akt activation (log2)” value stood at 1.29 ± 0.11.
The value for UGGUUCUAGACUUGCCAACUA was 1.94 ± 0.026.
Then UGGUUGACCAUAGAACAUGCGC, with 1.2 ± 0.092; and UGGUUGUAGUCCGUGCGAGAAUA, with 1.37 ± 0.19.
The value for UGGUUUACCGUCCCACAUACAU was 0.811 ± 0.33; that for UGUAAACAUCCCCGACUGGAAG was 0.646 ± 0.057; that for UGUAAACAUCCUACACUCAGCU was 0.757 ± 0.3.
